Legend:
Assay in all cases: Cell viability drug screen, 12-point dose-response AUC
Format in all cases: cell-based, human
[1] = tested on: SK4; details: SK4 cells (SEM subtype); 72 hours
Protocol: (§1) An FDA-approved small-molecule pharmacological compound (#L1300) and an anticancer compound for research (#L2000) were purchased from Selecckchem and a 10 mM solution was prepared in DMSO. A total of 1,345 compounds were tested the cell viability of the seven EMT gastric cancer cell lines.
(§2) Cells cultured for cell-based drug assay were inoculated into a 96-well white optical plate (Corning) at 5×10^3 cells per well. After 24 hours after inoculation, a 2.5 MJT (primary screen) or a half-log 12-serial diluent (secondary screen) of the pharmacological compound contained in DMSO is added to the cells with a robot using a BioMek FXp liquid processor (Beckman) to add to the cells at 50 mM. The final drug concentration in the 5 ns range and the DMSO specification control (0.5%) were calculated. The cells were then further incubated at 37° C. in a 5% CO2 incubator for 72 hours prior to measuring cell viability using the extra-GLO assay kit (Promega). The luminescent properties were measured after 15 min incubation at room temperature using a plate stacker equipped with a plate stacker. The normalized viability for the DMSO-based control was measured to generate a cell line-specific 12-point dose-response curve for each pharmacological compound, and then the area under the curve (AUC) was calculated using a trapezoidal method. […] The results of the repeated experiments were averaged to generate AUC values for each cell line for each compound.

[2] = tested on: NCC20; details: NCC20 cells; 72 hours
Protocol: as §1, §2

[3] = tested on: SNU1967; details: SNU1967 cells; 72 hours
Protocol: as §1, §2

[4] = tested on: YCC2; details: YCC2 cells; 72 hours
Protocol: as §1, §2

[5] = tested on: YCC11; details: YCC11 cells (SEM subtype); 72 hours
Protocol: as §1, §2

[6] = tested on: NCC24; details: NCC24 cells; 72 hours
Protocol: as §1, §2

[7] = tested on: Hs746T; details: Hs746T cells (SEM subtype); 72 hours
Protocol: as §1, §2

[8] = tested on: SNU601; details: SNU601 cells; 72 hours
Protocol: as §1, §2

[9] = tested on: NCC59; details: NCC59 cells; 72 hours
Protocol: as §1, §2

[10] = tested on: SNU1; details: SNU1 cells; 72 hours
Protocol: as §1, §2

[11] = tested on: NCI_N87; details: NCI_N87 cells; 72 hours
Protocol: as §1, §2

[12] = tested on: SNU484; details: SNU484 cells (SEM subtype); 72 hours
Protocol: as §1, §2

[13] = tested on: SNU1750; details: SNU1750 cells (SEM subtype); 72 hours
Protocol: as §1, §2

[14] = tested on: SNU638; details: SNU638 cells; 72 hours
Protocol: as §1, §2

[15] = tested on: SNU719; details: SNU719 cells; 72 hours
Protocol: as §1, §2

[16] = tested on: SNU668; details: SNU668 cells (SEM subtype); 72 hours
Protocol: as §1, §2

[17] = tested on: MKN74; details: MKN74 cells; 72 hours
Protocol: as §1, §2

[18] = tested on: SNU620; details: SNU620 cells; 72 hours
Protocol: as §1, §2

[19] = tested on: MKN1; details: MKN1 cells; 72 hours
Protocol: as §1, §2

[20] = tested on: MKN45; details: MKN45 cells (non-SEM subtype); 72 hours
Protocol: as §1, §2

[21] = tested on: OCUM1; details: OCUM1 cells; 72 hours
Protocol: as §1, §2

[22] = tested on: SNU16; details: SNU16 cells; 72 hours
Protocol: as §1, §2

[23] = tested on: SNU216; details: SNU216 cells (non-SEM subtype); 72 hours
Protocol: as §1, §2

[24] = tested on: NCC19; details: NCC19 cells; 72 hours
Protocol: as §1, §2

[25] = tested on: MKN28; details: MKN28 cells; 72 hours
Protocol: as §1, §2

[26] = tested on: YCC3; details: YCC3 cells; 72 hours
Protocol: as §1, §2

[27] = tested on: KATO3; details: KATO3 cells; 72 hours
Protocol: as §1, §2

[28] = tested on: AGS; details: AGS cells (non-SEM subtype); 72 hours
Protocol: as §1, §2

[29] = tested on: FU97; set-up: Average Area Under the Viability Curve (AUC), AUC norm value: scale not given here; details: FU97 cells; 72 hours
Protocol: Cells cultured for cell-based drug assay were inoculated into a 96-well white optical plate (Corning) at 5×10^3 cells per well. After 24 hours after inoculation, a 2.5 MJT (primary screen) or a half-log 12-serial diluent (secondary screen) of the pharmacological compound contained in DMSO is added to the cells with a robot using a BioMek FXp liquid processor (Beckman) to add to the cells at 50 mM. The final drug concentration in the 5 ns range and the DMSO specification control (0.5%) were calculated. The cells were then further incubated at 37° C. in a 5% CO2 incubator for 72 hours prior to measuring cell viability using the extra-GLO assay kit (Promega). The luminescent properties were measured after 15 min incubation at room temperature using a plate stacker equipped with a plate stacker. The normalized viability for the DMSO-based control was measured to generate a cell line-specific 12-point dose-response curve for each pharmacological compound, and then the area under the curve (AUC) was calculated using a trapezoidal method.

Structure (SMILES) | Average Area Under the Viability Curve (AUC), AUC norm value [1] | Average Area Under the Viability Curve (AUC), AUC norm value [2] | Average Area Under the Viability Curve (AUC), AUC norm value [3] | Average Area Under the Viability Curve (AUC), AUC norm value [4] | Average Area Under the Viability Curve (AUC), AUC norm value [5] | Average Area Under the Viability Curve (AUC), AUC norm value [6] | Average Area Under the Viability Curve (AUC), AUC norm value [7] | Average Area Under the Viability Curve (AUC), AUC norm value [8] | Average Area Under the Viability Curve (AUC), AUC norm value [9] | Average Area Under the Viability Curve (AUC), AUC norm value [10] | Average Area Under the Viability Curve (AUC), AUC norm value [11] | Average Area Under the Viability Curve (AUC), AUC norm value [12] | Average Area Under the Viability Curve (AUC), AUC norm value [13] | Average Area Under the Viability Curve (AUC), AUC norm value [14] | Average Area Under the Viability Curve (AUC), AUC norm value [15] | Average Area Under the Viability Curve (AUC), AUC norm value [16] | Average Area Under the Viability Curve (AUC), AUC norm value [17] | Average Area Under the Viability Curve (AUC), AUC norm value [18] | Average Area Under the Viability Curve (AUC), AUC norm value [19] | Average Area Under the Viability Curve (AUC), AUC norm value [20] | further results
Cc1ccc(S(=O)(=O)/C=C/C#N)cc1 [BAY 11-7082 (BAY 11-7821), BAY 11-7082] | −0.7659 | −0.8287 | −0.8028 | 0 | −1.538 | 0.8357 | −0.5796 | 0.7218 | 1.031 | 1.33 | 0.5073 | −0.4504 | −1.012 | −1.497 | 1.377 | 0.8081 | 0.03633 | −0.1923 | −0.3248 | 0.194 | Average Area Under the Viability Curve (AUC), AUC norm value [21]: 0.7491; Average Area Under the Viability Curve (AUC), AUC norm value [22]: −0.6715; Average Area Under the Viability Curve (AUC), AUC norm value [23]: 0.3865; Average Area Under the Viability Curve (AUC), AUC norm value [24]: −0.07527; Average Area Under the Viability Curve (AUC), AUC norm value [25]: −0.1987; Average Area Under the Viability Curve (AUC), AUC norm value [26]: 0.7116; Average Area Under the Viability Curve (AUC), AUC norm value [27]: 0.7229; Average Area Under the Viability Curve (AUC), AUC norm value [28]: −0.5085; Average Area Under the Viability Curve (AUC), AUC norm value [29]: 0.0931
CC[C@@H]1C(=O)N(C)c2cnc(Nc3ccc(C(=O)N[C@H]4CC[C@H](N5CCN(CC6CC6)CC5)CC4)cc3OC)nc2N1C(C)C [BI6727 (Volasertib), Volasertib] | −0.9263 | 0.5594 | −0.1645 | −0.09826 | −0.7997 | −0.9502 | 2.378 | 0.4757 | 3.198 | −0.487 | −0.3929 | −0.03282 | −0.5962 | 0.3626 | 3.74 | 0.1516 | −0.01134 | −0.4098 | −0.162 | 0.5875 | Average Area Under the Viability Curve (AUC), AUC norm value [21]: 2.405; Average Area Under the Viability Curve (AUC), AUC norm value [22]: 0; Average Area Under the Viability Curve (AUC), AUC norm value [23]: 1.868; Average Area Under the Viability Curve (AUC), AUC norm value [24]: 3.256; Average Area Under the Viability Curve (AUC), AUC norm value [25]: −1.335; Average Area Under the Viability Curve (AUC), AUC norm value [26]: 3.488; Average Area Under the Viability Curve (AUC), AUC norm value [27]: 3.3921; Average Area Under the Viability Curve (AUC), AUC norm value [28]: −1.0975; Average Area Under the Viability Curve (AUC), AUC norm value [29]: 0.3078
CC[C@@H]1C(=O)N(C)c2cnc(Nc3ccc(C(=O)NC4CCN(C)CC4)cc3OC)nc2N1C1CCCC1 [BI 2536] | −1.128 | 0.5722 | 0.0237 | −0.1875 | −0.3817 | −0.8832 | 1.951 | 0.0215 | 3.556 | −1.064 | −1.006 | 0 | −0.8076 | 0.1863 | 3.291 | −0.4211 | −0.6584 | −1.078 | −0.2123 | 0.09661 | Average Area Under the Viability Curve (AUC), AUC norm value [21]: 2.226; Average Area Under the Viability Curve (AUC), AUC norm value [22]: 0.02031; Average Area Under the Viability Curve (AUC), AUC norm value [23]: 2.038; Average Area Under the Viability Curve (AUC), AUC norm value [24]: 3.475; Average Area Under the Viability Curve (AUC), AUC norm value [25]: −1.69; Average Area Under the Viability Curve (AUC), AUC norm value [26]: 3.315; Average Area Under the Viability Curve (AUC), AUC norm value [27]: 4.704; Average Area Under the Viability Curve (AUC), AUC norm value [28]: −1.22; Average Area Under the Viability Curve (AUC), AUC norm value [29]: −0.4841

Source: patent publication US20250129430A1, “HIGH ATP-AFFINITY PROTEIN AS THERAPEUTIC TARGET FOR INTRACTABLE CANCER MOLECULAR SUBTYPES AND INHIBITOR THEREOF” (VeraVerse Co., Ltd., priority 2021, published 2025)
